Here are results for 1 compound from patent US6946121B2, “Composition in particular cosmetic or dermatological composition, containing oligosaccharides and preparation method and cosmetic treatment method” (Laboratories G Pharm, priority 1999, dated 2005).

Entries after “also recorded” stand apart in the source; their conditions may differ.

In the assay the test system is human basophils. The assay can be described thus: antidegranulating or antiactivating activity on human basophils by flow cytometry (anti-IgE stimulation, CD63 label). The assay is classed as cell-based. As to conditions: in vitro, same experimental conditions as the oligosaccharides. Here is the method: In order to test the antidegranulating or antiactivating activity of the oligosaccharides on human basophils by flow cytometry, leukocyte suspensions from different individuals selected as being good at responding to anti-IgE were used to isolate the leukocytes, by simple sedimentation at 1 g. These leukocytes are preincubated for 30 minutes with successive dilutions from 10 to 0.01 mg/ml of the test product. The basophils are then stimulated with a target concentration of a human anti-IgE labeled with a mixture of anti-IgE FITC and anti-CD63PE antibodies, CD63 being an activation label for human basophils. The percentages of activation or of inhibition are then calculated by flow cytometry. The biological activity of the oligosaccharides was thus evaluated.
The same biological tests were performed on structural analogs such as raffinose or oligosaccharides comprising an α bond between a galactose unit and another saccharide unit such as in melibiose.
Tests were thus undertaken. […] The percentage of inhibition was calculated by repeating the experiment three times.
(In general: A flow cytometer gives signals particle by particle.)

As to `OC[C@H]1O[C@H](OCC2O[C@@H](O)[C@H](O)[C@@H](O)[C@@H]2O)[C@H](O)[C@@H](O)[C@H]1O` (stereo partly shown) [melibiose], the “activity on leukocytes / mastocytes” value is “not active; also recorded: absolutely no activity”.
